Data on 6 compounds can be found in US7342015B2, “Indole derivatives” (H. Lundbeck A/S, priority 2001, dated 2008).

The target in experiment [1] is T1, cloned 5-HT1A receptors (Homo sapiens, UniProt P08908).
T1 construct: expressed in transfected cells; host or cells: HeLa cells (HA7)
T1 sequence (P08908 1-422): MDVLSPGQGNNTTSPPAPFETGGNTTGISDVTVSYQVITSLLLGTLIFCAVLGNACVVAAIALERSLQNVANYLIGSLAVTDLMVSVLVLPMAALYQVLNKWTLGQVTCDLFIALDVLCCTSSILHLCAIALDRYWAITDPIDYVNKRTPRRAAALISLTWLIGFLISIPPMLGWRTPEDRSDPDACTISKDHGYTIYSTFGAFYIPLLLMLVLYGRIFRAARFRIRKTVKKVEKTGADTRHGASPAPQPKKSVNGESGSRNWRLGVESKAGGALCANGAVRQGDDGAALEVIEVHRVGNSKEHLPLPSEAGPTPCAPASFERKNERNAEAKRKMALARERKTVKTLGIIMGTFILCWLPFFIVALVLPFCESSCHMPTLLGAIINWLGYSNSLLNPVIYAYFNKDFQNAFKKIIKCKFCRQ
As to the kind of experiment: 5-HT1A antagonistic activity: antagonism of 5-HT induced inhibition of forskolin induced cAMP accumulation in transfected HeLa cells (HA7). In kind it is cell-based. As to conditions: cloned 5-HT1A receptors in transfected HeLa cells (HA7). The protocol:
The 5-HT1A antagonistic activity of some of the compounds of the invention has been estimated in vitro at cloned 5-HT1A receptors, stably expressed in transfected HeLa cells (HA7). In this test, 5-HT1A antagonistic activity is estimated by measuring the ability of the compounds to antagonize the 5-HT induced inhibition of forskolin induced cAMP accumulation. The assay was performed as a modification of the method described by Pauwels, P. J. et al. Biochem. Pharmacol. 1993, 45, 375.
A general note: cAMP levels reflect the balance of adenylyl cyclase and phosphodiesterase activity.

Experiment [2] deals with T2, re-uptake of serotonin (3H-5-HT uptake into whole rat brain synaptosomes) (Rattus norvegicus, UniProt P31652).
T2 construct: whole rat brain synaptosomes; from tissue; host or cells: whole rat brain synaptosomes
Briefly: Inhibition of 3H-5-HT uptake into rat brain synaptosomes. It counts as biochemical. The note with it: in vitro. On the procedure:
The compounds of the invention have also been tested for their effect on re-uptake of serotonin in the following test:
Inhibition of ^3H-5-HT Uptake Into Rat Brain Synaptosomes.
Using this method, the ability of drugs to inhibit the accumulation of ^3H-5-HT into whole rat brain synaptosomes is determined in vitro. The assay was performed as described by Hyttel, J. Psychopharmacology 1978, 60, 13.

The target in experiment [3] is T1, cloned 5-HT1A receptors. Briefly: Inhibition of 3H-5-CT binding to human 5-HT1A receptors. As to conditions: cloned human 5-HT1A receptors in transfected HeLa cells (HA7), 15 minutes at 37° C., pH 7.7. On the procedure: The affinity of the compounds of the invention to 5-HT1A receptors was determined by measuring the inhibition of binding of a radioactive ligand at 5-HT1A receptors as described in the following test:
Inhibition of ^3H-5-CT Binding to Human 5-HT1A Receptors.
By this method, the inhibition by drugs of the binding of the 5-HT1A agonist ^3H-5-carboxamido tryptamine (3H-5-CT) to cloned human 5-HT1A receptors stably expressed in transfected HeLa cells (HA7) (Fargin, A. et al. J. Biol. Chem. 1989, 264, 14848) is determined in vitro. The assay was performed as a modification of the method described by Harrington, M. A. et al. J. Pharmacol. Exp. Ther. 1994, 268, 1098. Human 5-HT1A receptors (40 μg of cell homogenate) were incubated for 15 minutes at 37° C. in 50 mM Tris buffer at pH 7.7 in the presence of ^3H-5-CT. Non-specific binding was determined by including 10 μM of metergoline. The reaction was terminated by rapid filtration through Unifilter GF/B filters on a Tomtec Cell Harvester. Filters were counted in a Packard Top Counter.

T2 sequence (P31652 whole entry): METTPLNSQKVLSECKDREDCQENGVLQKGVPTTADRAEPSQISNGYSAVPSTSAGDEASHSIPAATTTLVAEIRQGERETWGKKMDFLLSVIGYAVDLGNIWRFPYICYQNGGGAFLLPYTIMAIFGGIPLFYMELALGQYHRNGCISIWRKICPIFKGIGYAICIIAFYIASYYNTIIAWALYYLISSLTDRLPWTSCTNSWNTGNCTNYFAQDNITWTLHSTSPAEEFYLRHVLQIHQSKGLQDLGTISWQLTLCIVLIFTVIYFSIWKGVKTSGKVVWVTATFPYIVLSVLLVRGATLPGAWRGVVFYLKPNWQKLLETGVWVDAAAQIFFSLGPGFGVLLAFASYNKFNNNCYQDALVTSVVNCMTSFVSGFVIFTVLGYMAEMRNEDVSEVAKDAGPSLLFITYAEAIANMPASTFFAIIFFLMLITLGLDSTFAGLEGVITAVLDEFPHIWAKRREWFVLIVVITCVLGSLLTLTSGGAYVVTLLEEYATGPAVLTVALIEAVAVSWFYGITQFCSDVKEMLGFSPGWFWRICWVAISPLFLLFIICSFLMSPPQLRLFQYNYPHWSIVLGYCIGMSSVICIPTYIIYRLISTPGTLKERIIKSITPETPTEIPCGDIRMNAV

In general, IC50 refers to the midpoint of a concentration-inhibition curve. On to `N#Cc1cccnc1SCCN1CCN(c2cccc3[nH]ccc23)CC1` [Compound 2b, 2-{2-[4-(1H-Indol-4-yl)piperazin-1-yl]ethylsulfanyl}nicotinonitrile], for which the IC50 in experiment [1] is < 7 µM; in experiment [2] it was < 20 nM; in experiment [3], < 50 nM.
With `Cc1cc(C)c(C#N)c(SCCCN2CCN(c3cccc4[nH]ccc34)CC2)n1` [Compound 1l, 2-{3-[4-(1H-Indol-4-yl)piperazin-1-yl]propylsulfanyl}-4,6-dimethylnicotinonitrile], the results for the IC50 in experiment [1] and in experiment [2] were < 7 µM and < 20 nM, respectively.
As to `Cc1ccc(C#N)c(SCCN2CCN(c3cccc4[nH]ccc34)CC2)n1` [Compound 1d, 2-{2-[4-(1H-Indol-4-yl)piperazin-1-yl]ethylsulfanyl}-6-methylnicotinonitrile], the IC50 in experiment [1] was < 7 µM; in experiment [2], < 20 nM; in experiment [3], < 50 nM.
Take `N#Cc1c(C(F)(F)F)cc(C2CC2)nc1SCCN1CCN(c2cccc3[nH]ccc23)CC1` [Compound 2e, 2-{2-[4-(1H-Indol-4-yl)piperazin-1-yl]ethylsulfanyl}-4-trifluoromethyl-6-cyclopropylnicotinonitrile]: the IC50 in experiment [1] was < 7 µM; in experiment [2], < 20 nM; in experiment [3], < 50 nM.
For `Cc1cc(C)c(C#N)c(SCCN2CCN(c3cccc4[nH]ccc34)CC2)n1` [Compound 1a, 2-{2-[4-(1H-Indol-4-yl)piperazin-1-yl]ethylsulfanyl}-4,6-dimethylnicotinonitrile], the figures for the IC50 in experiment [1] and in experiment [2] were < 7 µM and < 20 nM, respectively.
`Cc1cc(C)nc(SCCN2CCN(c3cccc4[nH]ccc34)CC2)n1` [Compound 2o, 4,6-Dimethyl-2-{2-[4-(1H-indol-4-yl)piperazin-1-yl]ethylsulfanyl}pyrimidine]: the IC50 in experiment [2] was < 20 nM; in experiment [3] it was < 50 nM.
